The structures appear in SMILES notation.

For the experiment, the target named is T1, hTRPC4 (Homo sapiens, UniProt Q9UBN4).
T1 sequence (Q9UBN4 1-977): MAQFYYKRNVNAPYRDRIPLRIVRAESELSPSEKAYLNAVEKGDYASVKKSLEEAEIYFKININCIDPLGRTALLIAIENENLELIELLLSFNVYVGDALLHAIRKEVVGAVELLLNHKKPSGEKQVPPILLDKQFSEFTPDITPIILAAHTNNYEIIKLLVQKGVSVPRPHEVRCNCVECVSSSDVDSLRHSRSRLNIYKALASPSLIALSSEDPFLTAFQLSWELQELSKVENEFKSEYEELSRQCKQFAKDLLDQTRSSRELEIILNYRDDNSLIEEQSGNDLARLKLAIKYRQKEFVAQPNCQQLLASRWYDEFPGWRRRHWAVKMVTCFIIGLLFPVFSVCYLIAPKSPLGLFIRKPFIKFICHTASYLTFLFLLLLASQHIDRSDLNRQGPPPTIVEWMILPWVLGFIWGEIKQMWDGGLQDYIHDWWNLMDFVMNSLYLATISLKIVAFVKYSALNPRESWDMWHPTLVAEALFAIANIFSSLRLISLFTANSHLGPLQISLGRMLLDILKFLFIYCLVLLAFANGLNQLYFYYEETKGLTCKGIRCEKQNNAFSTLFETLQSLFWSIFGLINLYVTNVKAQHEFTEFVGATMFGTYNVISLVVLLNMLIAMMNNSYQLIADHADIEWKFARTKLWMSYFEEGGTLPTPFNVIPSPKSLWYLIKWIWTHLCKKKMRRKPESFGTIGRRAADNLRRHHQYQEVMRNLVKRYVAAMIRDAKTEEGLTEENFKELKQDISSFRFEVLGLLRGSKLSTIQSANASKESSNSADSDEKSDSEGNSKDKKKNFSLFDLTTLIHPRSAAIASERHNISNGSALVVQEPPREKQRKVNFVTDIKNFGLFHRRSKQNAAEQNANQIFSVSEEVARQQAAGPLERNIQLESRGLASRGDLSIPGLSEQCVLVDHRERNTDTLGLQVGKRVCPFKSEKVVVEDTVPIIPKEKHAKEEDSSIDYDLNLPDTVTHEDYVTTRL
In words: Whole-cell patch clamp, inward current (Table B). In kind it is cell-based. The note with it: IC50 estimated by testing at 5 μM and 500 nM, all batches, read-out: hTRPC4 Patch Inwd (nM) (All Batches). From the text: Patch clamp experiments permit the detection of currents through the TRPC5 channel in the cell line described above. In normal whole-cell patch clamp recordings, a glass electrode is brought into contact with a single cell and a high-resistance (gigaohm) seal is established with the cell membrane. The membrane is then ruptured to achieve the whole-cell configuration, permitting control of the voltage of the cell membrane and measurement of currents flowing across the membrane using the amplifier attached to the electrode and resulting in the replacement of cytoplasm with the pipette solution. A perfusion system permits control of the extracellular solution, including the addition of blockers and activators of the current.
TRPC5 cells were induced 20-48 hours, removed from growth plates, and replated at low density (to attain good single-cell physical separation) on glass coverslips for measurement. In some cases, cells were grown in low density overnight on glass coverslips. Patch clamp recordings were made in the whole-cell mode with a holding potential of −40 mV. Every 5 seconds, a voltage ramp was applied from −120 to +100 mV, 400 ms in duration. Currents elicited were quantified at −80 mV and +80 mV. […] The external solution consisted of 150 mM NaCl, 4.5 mM KCl, 1 mM MgCl2, 2 mM CaCl2), 10 mM HEPES, 10 mM glucose, 1 mM EGTA, pH 7.4. […] Potential blockers were tested for ability to block both inward and outward currents in the continued presence of LaCl3.
“F” refers to agonist compounds. “ND” refers to compounds wherein the IC50 was not determined.
Regarding `Cn1c(=O)n(CCCO)c(=O)c2c1nc(Oc1cccc(OC(F)(F)F)c1)n2Cc1ccc(Cl)cc1` [Example 30], the IC50 was < 100 nM. In the case of `CCCOc1nc2c(c(=O)n(CCCO)c(=O)n2C)n1Cc1ccc(Cl)cc1` [Example 82] it was < 100 nM; in that of `CCn1c(=O)n(CCCO)c(=O)c2c1nc(Oc1cccc(OC(F)(F)F)c1)n2Cc1ccccc1` [Example 145], < 100 nM; in that of `Cc1cnc(Cn2c(Oc3cccc(OC(F)(F)F)c3)nc3c2c(=O)n(CCCO)c(=O)n3C)s1` [Example 161], < 100 nM. `CC(C)c1ccccc1-c1nc2c(c(=O)n(CCCO)c(=O)n2C)n1Cc1ccccc1` [Example 485]: the IC50 was < 100 nM.

Regarding `CC(C)CCn1c(Oc2cccc(OC(F)(F)F)c2)nc2c1c(=O)n(CCCO)c(=O)n2C` [Example 587], the IC50 was < 100 nM.

The record behind these values is patent US11958854B2 (Hydra Biosciences, LLC, priority 2013, dated 2024).
